What was measured:
[1] = test system: ALOMY; experiment: Herbicidal post-emergence action 1a (greenhouse pots, visual rating); format: in vivo, Alopecurus myosuroides; settings: Dosage 80 g/ha; rated visually about 3 weeks after treatment; 100% = plants have died, 0% = like control plants
In short: (§1)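 Visual scoring versus untreated plants (100% = plants dead, 0% = as control) followed roughly 3 weeks in the greenhouse after treatment. Plants grown in sandy loam pots had been sprayed on green parts at the one-leaf stage, 2–3 weeks post-sowing, with aqueous WP/EC preparations containing 0.5% additive, 600 l/ha, at 320 and/or 80 g/ha.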

[2] = test system: VIOTR; experiment: as above; format: in vivo, Viola tricolor; settings: dosage 80 g/ha, visual rating about 3 weeks after treatment
In short: as §1

[3] = test system: VERPE; experiment: as above; format: in vivo, Veronica persica; settings: dosage 80 g/ha, visual rating about 3 weeks after treatment
In short: as §1

[4] = test system: POAAN; experiment: Herbicidal post-emergence action 1b (twin sowing, 1280 g/ha); format: in vivo, Poa annua; settings: dosage 1280 g/ha, visual rating about 3 weeks after treatment
In short: (§2)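 Compounds, formulated as wettable powders or emulsion concentrates, were applied to foliage of greenhouse-grown weeds at the one-leaf stage with 0.5% additive in 600 L/ha water. Pots held one monocot and one dicot species in sandy loam. Efficacy was scored visually after about 3 weeks versus controls.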

[5] = test system: DIGSA; experiment: as above; format: in vivo, Digitaria sanguinalis; settings: dosage 1280 g/ha, visual rating about 3 weeks after treatment
Experimental: (§3) [table] b) Seeds of mono- and dicotyledonous weed plants are placed in plastic pots in sandy loam soil (twin sowing with one species each of mono- or dicotyledonous weed plants per pot), covered with soil and cultivated in a greenhouse under controlled growth conditions. 2 to 3 weeks after sowing, the test plants are treated at the one-leaf stage. The compounds of the invention, formulated in the form of wettable powders (WP) or as emulsion concentrates (EC), are applied to the green parts of the plants as aqueous suspension or emulsion with addition of 0.5% additive at a water application rate equivalent to 600 litres per hectare. After the test plants have been kept in the greenhouse under optimum growth conditions for about 3 weeks, the activity of the preparations is rated visually in comparison to untreated controls. For example, 100% activity=the plants have died, 0% activity=like control plants. Tables A16 to A21 below show the effects of selected compounds of the general formula (I) according to Tables 1 and 2 on various harmful plants and at an application rate corresponding to 1280 g/ha, which were obtained by the experimental procedure mentioned above.

[6] = test system: ECHCG; experiment: as above; format: in vivo, Echinochloa crus-galli; settings: dosage 1280 g/ha, visual rating about 3 weeks after treatment
Experimental: as §3

[7] = test system: ABUTH; experiment: as above; format: in vivo, Abutilon theophrasti; settings: dosage 1280 g/ha, visual rating about 3 weeks after treatment
Experimental: as §3

[8] = test system: MATIN; experiment: as above; format: in vivo, Matricaria inodora; settings: dosage 1280 g/ha, visual rating about 3 weeks after treatment
In short: as §2

[9] = test system: STEME; experiment: as above; format: in vivo, Stellaria media; settings: dosage 1280 g/ha, visual rating about 3 weeks after treatment
In short: as §2

[10] = test system: ALOMY; experiment: Herbicidal pre-emergence action 2a (greenhouse pots, visual scoring); format: in vivo, Alopecurus myosuroides; settings: dosage 320 g/ha, visual scoring after about 3 weeks
In short: (§4)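 The soil covering sown seeds is treated with an aqueous suspension or emulsion of wettable powder or emulsion concentrate (0.5% additive, 600 l/ha), corresponding to 320 g/ha and/or 80 g/ha. After about 3 weeks of greenhouse growth, damage is scored visually as a percentage.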

[11] = test system: LOLRI; experiment: as above; format: in vivo, Lolium rigidum; settings: dosage 320 g/ha, visual scoring after about 3 weeks vs untreated controls
In short: as §4

[12] = test system: SETVI; experiment: as above; format: in vivo, Setaria viridis; settings: dosage 320 g/ha, visual scoring after about 3 weeks vs untreated controls
In short: as §4

[13] = test system: AMARE; experiment: as above; format: in vivo, Amaranthus retroflexus; settings: visual scoring after about 3 weeks vs untreated controls
In short: as §4

[14] = test system: MATIN; experiment: as above; format: in vivo, Matricaria inodora; settings: dosage 320 g/ha, visual scoring after about 3 weeks vs untreated controls
Description: (§5) [table] a) Seeds of monocotyledonous and dicotyledonous weed plants and crop plants are placed in plastic or organic plant pots and covered with soil. The compounds of the invention, formulated in the form of wettable powders (WP) or as emulsion concentrates (EC), are then applied onto the surface of the covering soil as aqueous suspension or emulsion with addition of 0.5% additive at a water application rate of 600 1/ha (converted). After the treatment, the pots are placed in a greenhouse and kept under good growth conditions for the trial plants. After about 3 weeks, the effect of the preparations is scored visually in comparison with untreated controls as percentages. For example, 100% activity=the plants have died, 0% activity=like control plants. Tables B1 to B15 below show the effects of selected compounds of the general formula (I) according to Tables 1 and 2 on various harmful plants and an application rate corresponding to 320 g/ha and/or 80 g/ha, which were obtained by the experimental procedure mentioned above.

[15] = test system: VIOTR; experiment: as above; format: in vivo, Viola tricolor; settings: dosage 320 g/ha, visual scoring after about 3 weeks vs untreated controls
In short: as §4

[16] = test system: VERPE; experiment: as above; format: in vivo, Veronica persica; settings: dosage 320 g/ha, visual scoring after about 3 weeks vs untreated controls
In short: as §4

[17] = test system: POAAN; experiment: Herbicidal pre-emergence action 2b (doubly sown, 1280 g/ha); format: in vivo, Poa annua; settings: doubly sown pots, dosage 1280 g/ha, visual scoring after about 3 weeks
In short: (§6)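 Sandy loam pots, one mono- or dicot species each, double sowing; seeds covered. Aqueous WP/EC spray + 0.5% additive, 600 L/ha, onto cover soil. GH, ~3 wk, visual % vs control.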

[18] = test system: DIGSA; experiment: as above; format: in vivo, Digitaria sanguinalis; settings: doubly sown pots, dosage 1280 g/ha, visual scoring after about 3 weeks
In short: as §6

[19] = test system: ECHCG; experiment: as above; format: in vivo, Echinochloa crus-galli; settings: doubly sown pots, dosage 1280 g/ha, visual scoring after about 3 weeks
In short: as §6

[20] = test system: AMARE; experiment: as above; format: in vivo, Amaranthus retroflexus; settings: doubly sown pots, dosage 1280 g/ha, visual scoring after about 3 weeks
In short: as §6

[21] = test system: MATIN; experiment: as above; format: in vivo, Matricaria inodora; settings: doubly sown pots, dosage 1280 g/ha, visual scoring after about 3 weeks
In short: as §6

[22] = test system: STEME; experiment: as above; format: in vivo, Stellaria media; settings: doubly sown pots, dosage 1280 g/ha, visual scoring after about 3 weeks
In short: as §6

[23] = test system: DIGSA; experiment: Herbicidal post-emergence action 1a (greenhouse pots, visual rating); format: in vivo, Digitaria sanguinalis; settings: Dosage 80 g/ha; rated visually about 3 weeks after treatment; 100% = plants have died, 0% = like control plants
Experimental: (§7) [table] a) Seeds of monocotyledonous and dicotyledonous weeds and crop plants are placed in sandy loam in plastic or organic plant pots, covered with soil and cultivated in a greenhouse under controlled growth conditions. 2 to 3 weeks after sowing, the test plants are treated at the one-leaf stage. The compounds of the invention, formulated in the form of wettable powders (WP) or as emulsion concentrates (EC), are then sprayed onto the green parts of the plants as aqueous suspension or emulsion with addition of 0.5% additive at a water application rate of 600 1/ha (converted). After the test plants have been kept in the greenhouse under optimum growth conditions for about 3 weeks, the activity of the preparations is rated visually in comparison to untreated controls. For example, 100% activity=the plants have died, 0% activity=like control plants. Tables A1 to A15 below show the effects of selected compounds of the general formula (I) according to Tables 1 and 2 on various harmful plants and an application rate corresponding to 320 g/ha and/or 80 g/ha, which were obtained by the experimental procedure mentioned above.

[24] = test system: AMARE; experiment: as above; format: in vivo, Amaranthus retroflexus; settings: dosage 80 g/ha, visual rating about 3 weeks after treatment
In short: as §1

[25] = test system: PHBPU; experiment: as above; format: in vivo, Pharbitis purpurea; settings: dosage 80 g/ha, visual rating about 3 weeks after treatment
Experimental: as §7

[26] = test system: DIGSA; experiment: Herbicidal pre-emergence action 2a (greenhouse pots, visual scoring); format: in vivo, Digitaria sanguinalis; settings: dosage 80 g/ha, visual scoring after about 3 weeks
Description: as §5

SMILES	Post-emergence action against ALOMY in % [1] [%]	Post-emergence action at 1280 g/ha against POAAN in % [4] [%]	Post-emergence action at 1280 g/ha against DIGSA in % [5] [%]	Post-emergence action at 1280 g/ha against ECHCG in % [6] [%]	Post-emergence action at 1280 g/ha against ABUTH in % [7] [%]	Post-emergence action at 1280 g/ha against MATIN in % [8] [%]	Post-emergence action at 1280 g/ha against STEME in % [9] [%]	Pre-emergence action at 1280 g/ha against POAAN in % [17] [%]	Pre-emergence action at 1280 g/ha against DIGSA in % [18] [%]	Pre-emergence action at 1280 g/ha against ECHCG in % [19] [%]	Pre-emergence action at 1280 g/ha against AMARE in % [20] [%]	Pre-emergence action at 1280 g/ha against MATIN in % [21] [%]	Pre-emergence action at 1280 g/ha against STEME in % [22] [%]	also measured
N#CCOC(=O)COc1nn(-c2cnccn2)c(-c2ccc(F)nc2)c1Br [Example I-65]	80	100	100	90	90	100	90	100	100	100	100	100	100	Post-emergence action against VIOTR in % [2]: 80%; Post-emergence action against VERPE in % [3]: 80%; Pre-emergence action against ALOMY in % [10]: 90%; Pre-emergence action against LOLRI in % [11]: 80%; Pre-emergence action against SETVI in % [12]: 100%; Pre-emergence action against AMARE in % ([13]; dosage 320 g/ha): 100%; Pre-emergence action against MATIN in % [14]: 90%; Pre-emergence action against VIOTR in % [15]: 90%; Pre-emergence action against VERPE in % [16]: 90%
O=C(O)COc1nn(-c2cnccn2)c(-c2ccc(F)nc2)c1Br [Example I-49, {[4-bromo-5-(6-fluoropyridin-3-yl)-1-(pyrazin-2-yl)-1H-pyrazol-3-yl]oxy}acetic acid]		100	90	100	100	100	90	100	100	100	100	100	100	
O=C(COc1nn(-c2cnccn2)c(-c2ccc(F)nc2)c1Br)OCc1ccccn1 [Example I-70]			100	90	100	100	100	100	100	100	100	100	100	
COC(=O)[C@H](C)Oc1nn(-c2cnccn2)c(-c2ccc(F)nc2)c1Br [Example I-18]		100	100		90	90	100	100	100	100	100	90	100	
CC(Oc1nn(-c2cnccn2)c(-c2ccc(F)c(F)c2)c1Br)C(=O)O (stereo not shown) [Example I-47]	90	100	100	100	90	90	100	100	100	100	100	100	100	Post-emergence action against DIGSA in % [23]: 80%; Post-emergence action against AMARE in % [24]: 80%; Post-emergence action against PHBPU in % [25]: 80%; Pre-emergence action against DIGSA in % [26]: 100%; Pre-emergence action against AMARE in % ([13]; dosage 80 g/ha): 90%
COC(=O)[C@@H](C)Oc1nn(-c2cnccn2)c(-c2cncnc2)c1Br [Example I-30]		100	100	90	90		90	100	100	100	100	90	100	
